Measurements taken from patent publication US6790652B1, “Method and apparatus for high density format screening for bioactive molecules” (BioImage A/S, priority 1998, dated 2004).
Like-named read-outs stand apart in the source and are kept apart here.

Tests used:
[1] = system: A10 smooth muscle cells; conditions: for response of detector cells (JC-1 fluorescence): five-concentration grid
Protocol: Cells were grown to confluence on tissue culture treated polystyrene in DMEM 10% FCS, 100 μg/ml streptomycin and 100 IU/ml penicillin. […] FCCP. FCCP (Sigma) was printed onto a supported porous aluminium oxide filter (Anopore, Whatman International Ltd, Maidstone, Kent, UK) in a 5×5 spot grid, at a single concentration of 50 μM in DMSO, or as five rows of five spots (50, 5, […], 0.05 and 0.005 μM in DMSO) and allowed to dry. The volume of liquid in each spot was approximately 1 nanoliter. The A10 cells were loaded for 25 min in KRW supplemented with 10% FCS and 5 μM JC-1 (Molecular Probes Inc.) at 37° C. After three washes in KRW, the cells were placed on the stage of a Nikon Diaphot epifluorescence microscope and imaged using a 2× plan apochromatic objective and a CCD camera (Princeton Instruments, NY USA). The cells were excited by 450-490 nm light and light emitted from the cells was filtered by a dichroic mirror (505 nm) and an emission filter (510-560 nm). Exposure/ntegration times of 0.5 s were used and images acquired at 4 s intervals. At the time indicated as 0 in FIGS. 8 and 9 a filter with spots of FCCP in the patterns mentioned above was lowered down into the buffer overlying the cells and rapidly adjusted to a distance of about 300 μm above the cell layer and thereafter fixed in that position.

[2] = system: A10 smooth muscle cells; conditions: read-out: EC50 for a mitochondrial depolarisation in these cells, known value; cited from earlier work
[3] = system: BHKhM1 cells; assay: Fluo-3 calcium response of BHKhM1 cells on porous membrane lowered onto compound spots on glass; format: cell-based; conditions: approx. 10 nanoliters
Protocol: Ionomycin was printed onto a glass surface at two concentrations (10 mM and 1 mM), and thapsigargin was printed onto the surface at 1 mM. All spots were allowed to dry. The volume of liquid spotted was approx. 10 nanoliters per spot. At the time indicated as 0 s the still-wet membrane with the cells was lowered down onto the glass surface so that the membrane and the glass came in direct contact, thereby dissolving the compounds deposited in the spots.

SMILES | response of detector cells (JC-1 fluorescence) ([1]; spot concentration 0.005 μM in DMSO) | response of detector cells (JC-1 fluorescence) ([1]; spot concentration 0.05 μM in DMSO) | response of detector cells (JC-1 fluorescence) ([1]; spot concentration 0.5 μM in DMSO) | response of detector cells (JC-1 fluorescence) ([1]; spot concentration 5 μM in DMSO) | response of detector cells (JC-1 fluorescence) ([1]; spot concentration 50 μM in DMSO) | fluorescence intensity time profile (mitochondrial membrane depolarisation) ([1]; spots of 50 μM in DMSO, 5×5 grid, single concentration) | lag phase before rise in fluorescence intensity ([1]; spots of 50 μM in DMSO, approx. 1 nanoliter, five central spots) | EC50 [2] | Fluo-3 fluorescence response (time profile) ([3]; spots printed at 1 mM) | Fluo-3 fluorescence response (onset, spatial size, intensity) ([3]; spots printed at 10 mM) | Fluo-3 fluorescence response (time profile) ([3]; spots printed at 10 mM)
N#CC(C#N)=NNc1ccc(OC(F)(F)F)cc1 [FCCP, carbonyl cyanide p-trifluoromethoxyphenylhydrazone] | do not show detectable responses | do not show detectable responses | clearly give positive responses | clearly give positive responses | quickest response | steep rise in fluorescence intensity | 10 to 15 s | ~8 nM |  |  | 
C[C@H](CCC(=O)O)C[C@H](C)C[C@H](C)C(=O)/C=C(\O)[C@H](C)C[C@H](C)C/C=C/[C@@H](C)[C@@H](O)[C@@H](C)[C@@H](O)C[C@@H]1CC[C@@](C)([C@H]2CC[C@@](C)([C@@H](C)O)O2)O1 [Ionomycin, ionomycin] |  |  |  |  |  |  |  |  | sustained responses | earliest, spatially largest, and most intense response | sustained responses
C/C=C(/C)C(=O)O[C@H]1C(C)=C2[C@H]([C@@H]1OC(=O)CCCCCCC)[C@@](C)(OC(C)=O)C[C@H](OC(=O)CCC)[C@@]1(O)[C@H]2OC(=O)[C@@]1(C)O [thapsigargin] |  |  |  |  |  |  |  |  | transient and lower in intensity than that of either concentration of ionomycin |  | 
